Like-named read-outs stand apart in the source and are kept apart here.
Tests used:
BSA = BSA (Bos taurus, UniProt P02769); format: binding, bovine; details: for Δλ (nm), blue shift of BSA band: 25 μM BSA, compound 0–25 μM; for Binding constant Kapp by BH method (Kb, BSA): 25 °C; for Gibb's free energy change of BSA binding: T = 298 K
[1] = test system: Salmonella enterica serovar typhi; assay: Agar disc diffusion, strain B; format: cell-based; details: for Diameter of clear zone inhibition: control 6 mm
Pseudomonas aeruginosa = assay: Agar disc diffusion, strain D; format: cell-based; parameters: Inhibition%: concentration or dose not given beside the values; details: for Diameter of clear zone inhibition: control 6 mm
Staphylococcus Aureus = assay: Agar disc diffusion, strain F; format: cell-based; parameters: Inhibition%: concentration or dose not given beside the values; details: for Diameter of clear zone inhibition: control 6 mm
Mucor indicus = assay: Agar disc diffusion, strain J; format: cell-based; parameters: Inhibition%: concentration or dose not given beside the values; details: for Diameter of clear zone inhibition: control 6 mm
MCF-7 = assay: MTT cell viability assay, MCF-7; format: cell-based, human; details: MCF-7, 72 h of exposure
NHDF = assay: MTT cell viability assay, NHDF; format: cell-based, human; details: NHDF normal cells, 72 h of exposure
Description: Cellular viability or metabolic properties can be measured using the MTT assay, which is a powerful and consistent method for cytotoxic properties. […] As per the colorimetric approach, the IC50 values of all compounds were evaluated via the percentage of cell viability or inhibition of growth.[128] […] However, complexes (2) and (3) were exposed to similar cytotoxic potential as the others,[129] which induces apoptosis due to their ability to produce ROS more efficiently than the free ligand. […] The cytotoxic effectiveness is dependent upon the DNA binding modalities, the structure–activity relationship, the drug concentrations, and the incubation period exposure.[130] […] Coordination between the ligands and metal ions results in charge equilibration, which diminishes the polarity of the metal ions and also causes the ability of the test complexes to pass via the cell membrane lipid layer in accordance with Tweedy's chelation theory. Thus, it inhibits the synthesis of cell-wall/protein/nucleic acid. Additionally, the results of DNA binding tests using these complexes, including gel electrophoresis, UV-vis spectral titration, hydrodynamics, emission, and CV findings, were in good agreement with the findings of cytotoxicity.[131] Expressions eqn (44) and (45) were applied to measure the percentage of growth inhibition and cell viability (Table 10). In this case, complexes (2) and (3) have been proven to have greater biological efficiency than the others. Cytotoxicity depends on not only the hydrophilicity or lipophilicity and permeability, which only assist the crossing of the cell membrane but are not responsible for cell death, but also on several other factors, including the Lewis acid character, overall stability, solubility, conductivity, compatibility, length of the metal–ligand bond, overall charge, electron density, reduction potential, dipole moment, intermolecular hydrogen bonds, proton transfer equilibrium, and coordination environment. These significant elements might also contribute to the increased biological activity. Moreover, cobalt is also generally not considered to be a very toxic element, and its coordination complexes have fascinating redox and magnetic characteristics that fit them for a remarkable range of biological and medical uses. […] Moreover, it is possible to intelligently adjust these factors to successfully target a desired pathway or biomolecule. Designing such well-controlled and selective cobalt-based therapeutics may benefit from a mechanistic understanding of the varied bioactivities of cobalt complexes. Thus, knowing the mechanism of action can direct the advancement of prospective cobalt treatments to clinical trial.[133]
2.5. Assessment of in-vitro antimicrobial properties
bacteria and 7 days for fungal strains.

[2] = Shake flask n-octanol/deionized water partition (lipophilicity); format: physicochemical; details: for pKa: Henderson–Hasselbalch; for Concentration, aqueous layer: deionised water phase; for Concentration, organic layer: n-octanol phase
Description: The lipophilicity of all complexes and free ligands was evaluated by the flask-shaking method through n-octanol/deionized water phase partition.[49–51] The partition coefficients (log Po/w) and distribution coefficients (log Do/w) of all substances were also acquired from molar absorption coefficients, conductivity, and pH measurements.[52–54]
Lipophilicity is an imperative factor in anticancer and antimicrobial properties, particularly the necessity for a relevant hydrophobicity to assist the crossing of the cell membrane. This is also supported for the characterization of a drug because it has a fundamental impact on the pharmacokinetic profile and is associated with its capacity to enter tumor cells through passive diffusion.[139] […] This is probably due to the fact that hydrophobic effects play a crucial role not only in the intramolecular interactions that take place between a medication and its target site, but also in the distribution of a drug within a biosystem, its interaction with rival binding sites, passage across and into membranes, and its interaction with metabolizing enzymes. However, the “accurate” model system for hydrophobic effects is octanol/water. Hydrophobicity (lipophilicity) is associated with the partition coefficient (log P), which is a measure of the ability of the solute to go into two immiscible phases (polar and non-polar environments). Also, it refers to the concentration of unionized species of compounds. Generally, the ability of a drug to penetrate with high permeability into lipid membranes depends on the solubility and partition coefficient of the drug. Furthermore, the partition coefficient is extensively employed in the discovery of new medications, chromatography, physical chemistry, environmental science and other fields. Since lipophilicity is one of the major parameters affecting important biological processes, it can influence drug intake via the absorption, distribution, metabolism, excretion, and toxicity (ADMET) characteristics of the substances.[140] Additionally, the ability of a molecule or drug to passively diffuse across cell membranes has been linked to its lipophilicity, which is a measure of the solubility of the substance in aqueous and lipid-like environments.[141] In general, chemotherapeutic medications often need to have certain solubility in the lipid phase in order to be absorbed by the biofilm. Meanwhile, the intracellular milieu is a water-soluble environment once the drug has entered the cell. The medicine must be water-soluble for it to have any anticancer effects. […] Conversely, the cytotoxic properties of a synthesized complex are not only associated with its DNA/protein binding affinity but may be also influenced by its lipophilicity. Additionally, molecules with higher lipophilicity have increased permeability into cell membranes, which determines a drug's cytotoxicity. […] However, more positive partition coefficient values (log P > 0) correspond to higher lipophilicity, and more negative values (log P < 0) correspond to higher hydrophilicity. Generally, log P is measured between −3 and +10; if […], the substance has an extremely hydrophilic character, and if log P > +10, the substance has an extremely hydrophobic character. In addition, the aromatic ligands get larger in size and become more hydrophobic. […] The present complexes (1–3) have higher values of log P and log D compared to the free ligand (Table 11). However, when log P > ±2, the drug will be harder to excrete from the body due to its high lipophilic character, which also creates toxicity due to accumulation. […] (Table 11). […] The observed results are also well correlated with cytotoxic properties. Moreover, in an equilibrium two-component system, the partition coefficient (log P) reflects the ratio of neutral solute concentrations in the organic and aqueous phases. As a result, log P expresses the inherent lipophilicity of a compound in the absence of dissociation or ionization. […]

[3] = n-octanol/deionised water, shake flask

Row | Structure (SMILES) | Δλ (nm), blue shift of BSA band (BSA) | Binding constant Kapp by BH method (Kb, BSA) (BSA) | Gibb's free energy change of BSA binding (BSA) | Inhibition% [1] | Diameter of clear zone inhibition [1] | Inhibition% (Pseudomonas aeruginosa) | Diameter of clear zone inhibition (Pseudomonas aeruginosa) | Inhibition% (Staphylococcus Aureus) | Diameter of clear zone inhibition (Staphylococcus Aureus) | Inhibition% (Mucor indicus) | Diameter of clear zone inhibition (Mucor indicus) | IC50 (MCF-7) | IC50 (NHDF) | Concentration, aqueous ions [2] | Net pH [2] | pKa [2] | Concentration, aqueous layer [2] | Concentration, organic layer [2] | Log D ([2]; n-octanol/deionised water) | Log P [2, 3] | also measured
1 | [Mn+2].[O-]c1ccccc1N=Cc1ccc(N2CCOCC2)cc1.[O-]c1ccccc1N=Cc1ccc(N2CCOCC2)cc1.c1ccc(-c2ccccn2)nc1 [(1)] | 03 nm | 12429 M⁻¹ | -5.5827 kcal/mol | 50% | 12 mm | 63% | 16 mm | 40% | 10 mm | 45% | 11 mm | 36.6 ± 1.8 µM | 76.6 ± 3.8 µM | 238 µM | 3.48 | 3.42 | 1600 µM | 23500 µM | 1.107 | 1.166 | 
2 | [Co+2].[O-]c1ccccc1N=Cc1ccc(N2CCOCC2)cc1.[O-]c1ccccc1N=Cc1ccc(N2CCOCC2)cc1.c1ccc(-c2ccccn2)nc1 [(2)] | 02 nm | 30937 M⁻¹ | -6.12271 kcal/mol | 40% | 10 mm | 54% | 13 mm | 45% | 11 mm | 45% | 11 mm | 35.9 ± 1.8 µM | 74 ± 3.7 µM | 56.6 µM | 4.38 | 4.36 | 12000 µM | 400 µM | −1.497 | −1.477 | 
3 | [Ni+2].[O-]c1ccccc1N=Cc1ccc(N2CCOCC2)cc1.[O-]c1ccccc1N=Cc1ccc(N2CCOCC2)cc1.c1ccc(-c2ccccn2)nc1 [(3)] | 02 nm | 18374 M⁻¹ | -5.81417 kcal/mol | 40% | 10 mm | 57% | 14 mm | 40% | 10 mm | 54% | 13 mm | 34.5 ± 1.7 µM | 73.8 ± 3.7 µM | 35.7 µM | 4.76 | 4.75 | 1250 µM | 18500 µM | 1.158 | 1.170 | 
4 | Oc1ccccc1N=Cc1ccc(N2CCOCC2)cc1 [(HL), 2-(4-morpholinobenzylideneamino)phenol] | 02 nm | 7556 M⁻¹ | -5.28791 kcal/mol | 33% | 09 mm | 25% | 08 mm | 33% | 09 mm | 45% | 11 mm |  |  | 789 µM | 3.35 |  | 900 µM | 11000 µM |  |  | IC50 (MCF-7; Homo sapiens, MCF7): 105 ± 5.3 µM; IC50 (NHDF; Homo sapiens): 209 ± 10.4 µM; logD at 24 h ([2]; n-octanol/deionised water, pH 7.11): 0.814; pKa ([2]; n-octanol/deionized water (shake flask), pH 3.35, read-out: pKa): 3.08; logP at 24 h ([2]; pH 7.11, n-octanol/deionised water, shake flask): 1.09

From paper PMC10508264, “Exploring the antioxidant, antimicrobial, cytotoxic and biothermodynamic properties of novel morpholine derivative bioactive Mn(II), Co(II) and Ni(II) complexes – combined experimental and theoretical measurements towards DNA/BSA/SARS-CoV-2 3CL^Pro” (RSC Medicinal Chemistry, 2023)
